# ChEMBL document CHEMBL1125635, “Effect of hydroxyl group configuration in hydroxyethylamine dipeptide isosteres on HIV protease inhibition. Evidence for multiple binding modes” (J Med Chem, 1991)
# Experiments:
# [1] = biological target: T1, Human immunodeficiency virus type 1 protease (Human immunodeficiency virus 1, UniProt Q72874); experiment: In vitro concentration required to inhibit 50% activity of HIV protease was measured (exp 2); type: functional
# [2] = biological target: T1, Human immunodeficiency virus type 1 protease; experiment: In vitro concentration required to inhibit 50% activity of HIV protease was measured; type: functional
# [3] = biological target: T1, Human immunodeficiency virus type 1 protease; experiment: In vitro binding affinity against HIV protease was measured
Compound,IC50 [1] [nM],IC50 [2] [nM],Ki [3] [nM]
CC(C)(C)OC(=O)[C@@H]1CCCN1C[C@@H](O)[C@H](Cc1ccccc1)NC(=O)[C@H](CC(N)=O)NC(=O)OCc1ccccc1,300,450,–
CC(C)(C)OC(=O)[C@@H]1CCCN1C[C@H](O)[C@H](Cc1ccccc1)NC(=O)[C@H](CC(N)=O)NC(=O)OCc1ccccc1,140,51,–
CC(=O)N[C@@H](CO)C(=O)N[C@@H](CC(C)C)C(=O)N[C@@H](CC(N)=O)C(=O)N[C@@H](Cc1ccccc1)[C@H](O)CN1CCC[C@H]1C(=O)OC(C)(C)C,–,14,–
CC[C@H](C)[C@H](NC(=O)[C@@H]1CCCN1C[C@@H](O)[C@H](Cc1ccccc1)NC(=O)[C@H](CC(N)=O)NC(=O)OC(C)(C)C)C(=O)N[C@H](C(=O)OC)C(C)C,–,850,–
CC[C@H](C)[C@H](NC(=O)[C@@H]1CCCN1C[C@H](O)[C@H](Cc1ccccc1)NC(=O)[C@H](CC(N)=O)NC(=O)OC(C)(C)C)C(=O)N[C@H](C(=O)OC)C(C)C,–,16,–
CC(=O)N[C@@H](CO)C(=O)N[C@@H](CC(C)C)C(=O)N[C@@H](CC(N)=O)C(=O)N[C@@H](Cc1ccccc1)[C@@H](O)CN1CCC[C@H]1C(=O)OC(C)(C)C,–,14,–
CC[C@H](C)[C@H](NC(=O)[C@@H]1CCCN1C[C@H](O)[C@H](Cc1ccccc1)NC(=O)[C@H](CC(N)=O)NC(=O)OCc1ccccc1)C(=O)N[C@@H](Cc1ccccc1)C(=O)OC,–,4,–
CC[C@H](C)[C@H](NC(=O)[C@@H]1CCCN1C[C@H](O)[C@H](Cc1ccccc1)NC(=O)[C@H](CC(N)=O)NC(=O)c1ccc2ccccc2n1)C(=O)N[C@@H](Cc1ccccc1)C(=O)OC,–,2.3,–
CC[C@H](C)[C@H](NC(=O)[C@@H]1CCCN1CC(O)[C@H](Cc1ccccc1)NC(=O)[C@H](CC(N)=O)NC(=O)[C@H](CC(C)C)NC(=O)[C@H](CO)NC(C)=O)C(=O)N[C@H](C(=O)OC)C(C)C (mixture of isomers),–,9,0.6
CC[C@H](C)[C@H](NC(=O)[C@@H]1CCCN1C[C@H](O)[C@H](Cc1ccccc1)NC(=O)[C@H](CC(N)=O)NC(=O)[C@H](CC(C)C)NC(=O)[C@H](CO)NC(C)=O)C(=O)N[C@H](C(=O)OC)C(C)C (stereo in doubt; 1R),–,65,20
CC[C@H](C)[C@H](NC(=O)[C@@H]1CCCN1C[C@H](O)[C@H](Cc1ccccc1)NC(=O)[C@H](CC(N)=O)NC(=O)[C@H](CC(C)C)NC(=O)[C@H](CO)NC(C)=O)C(=O)N[C@H](C(=O)OC)C(C)C (stereo in doubt; 1S),–,3.4,0.24
